# In patent US20070059378A1, “Medical composition for balancing bodily processes” (Metagenics, Inc., priority 2001, published 2007):
# Test system: subjects with PMS symptoms
# Assay: Clinical study on PMS symptoms: Shortened Premenstrual Assessment Form (SPAF)
# Assay type: in vivo, women
# Settings: medical food/I3C group vs medical food/placebo group
# Method: The clinical trial was performed at the Functional Medicine Research Center, Gig Harbor, Wash. […] Exclusion criteria for the study included: evidence of untreated endocrine, neurological, or infectious disorder; pregnancy or lactation; history of diabetes, mental illness or attempted suicide, or liver, kidney or heart disease; use of oral corticosteroids within four weeks prior to the screening; use of anti-arrhythmic or other cardiac medications.
# The study was a […], 2-armed trial with stratification based on the use of birth control medication. Primary endpoints were monitored at the Screening Visit, Visit 1, Visit 2, and Visit 3. […]
# Two research-validated, PMS-specific questionnaires were chosen for monitoring PMS symptoms: the Shortened Premenstrual Assessment Form (SPAF) and the Menstrual Distress Questionnaire (MDQ). […] The MDQ data is transformed to provide a normalized score for which a population mean of 50 and a standard deviation of 10 have been determined as reference values. […]
# Baseline data (the level of symptoms experienced in the preceding 2 menstrual cycles) were obtained from averaging the Screening Visit and Visit 1 values, and served as a control for non-intervention variability. Laboratory and questionnaire data were analyzed by a one-way analysis of variance (ANOVA) using JMP Statistical Package (SAS Institute, Cary, N.C.). […]
compound,measurement,setting,value
"OCc1c[nH]c2ccccc12 [Example I3C, indole-3-carbinol]",additional effect of I3C on PMS symptoms (questionnaire data) over medical food/placebo,,no difference
same,additional effect of I3C on PMS symptoms (questionnaire data) over medical food/placebo,listed as 13C,no additional effect
